# Reference: US8143308B2, “Synthesis of oligo/poly(catechins) and methods of use” (University of Massachusetts Lowell, priority 2005, dated 2012)
# Assays:
# [1] = system: MCF-7 (HTB-22, low metastatic breast adenocarcinoma) cells; test: Cell proliferation assay, MCF-7 low metastatic breast adenocarcinoma cells; type: cell-based, human; details: another experiment; only at high doses effective
# [2] = Stability of activity after dissolving in solvent
# [3] = system: MCF-7 and MDA-MB-231 cells; test: Anticancer activity in vitro, summary statements for breast cancer cells; type: cell-based, human; details: MCF-7 and MDA-MB-231 in vitro
# [4] = system: MCF12A (CRL#10782, normal mammary epithelial) cells; test: Cell proliferation assay, MCF12A normal mammary epithelial cells; details: another experiment
substance,measurement,setting,value
(−)-epigallocatechin gallate [EGCG],dose at which effective on MCF-7,[1],9.2 µg/mL
same,time to loss of activity,[2],≤ 1 h
same,dose at which active / effective,[3],1 to 40 µg/mL
same,inhibition of normal MCF-12A cells (in words),[4]; 5.0 μg/ml,inhibited
same,inhibition of normal MCF-12A cells (in words),[4]; 40 μg/ml,inhibited
